From ChEMBL document CHEMBL1138857, “Quinol-4-ones as steroid A-ring mimetics in nonsteroidal dissociated glucocorticoid agonists” (J Med Chem, 2006)

How the values were obtained:
Mus musculus = assay: Inhibition of LPS-stimulated TNFalpha production in BALB/c mouse at 10 mg/kg, po; assay type: functional
HFF [1] = assay: Induction of aromatase activity in HFF cells assessed as production of beta estradiol by aromatase assay relative to Dexamethasone; assay type: functional, Homo sapiens
HFF [2] = assay: Induction of aromatase activity in HFF cells assessed as production of beta estradiol by aromatase assay; assay type: functional, cell-based; conditions: Homo sapiens
HFF [3] = assay: Inhibition of IL1-stimulated IL6 production in HFF cells relative to Dexamethasone; assay type: functional, Homo sapiens
Glucocorticoid receptor = target: T1, Glucocorticoid receptor (Homo sapiens, UniProt P04150)
T1 sequence (P04150 whole entry): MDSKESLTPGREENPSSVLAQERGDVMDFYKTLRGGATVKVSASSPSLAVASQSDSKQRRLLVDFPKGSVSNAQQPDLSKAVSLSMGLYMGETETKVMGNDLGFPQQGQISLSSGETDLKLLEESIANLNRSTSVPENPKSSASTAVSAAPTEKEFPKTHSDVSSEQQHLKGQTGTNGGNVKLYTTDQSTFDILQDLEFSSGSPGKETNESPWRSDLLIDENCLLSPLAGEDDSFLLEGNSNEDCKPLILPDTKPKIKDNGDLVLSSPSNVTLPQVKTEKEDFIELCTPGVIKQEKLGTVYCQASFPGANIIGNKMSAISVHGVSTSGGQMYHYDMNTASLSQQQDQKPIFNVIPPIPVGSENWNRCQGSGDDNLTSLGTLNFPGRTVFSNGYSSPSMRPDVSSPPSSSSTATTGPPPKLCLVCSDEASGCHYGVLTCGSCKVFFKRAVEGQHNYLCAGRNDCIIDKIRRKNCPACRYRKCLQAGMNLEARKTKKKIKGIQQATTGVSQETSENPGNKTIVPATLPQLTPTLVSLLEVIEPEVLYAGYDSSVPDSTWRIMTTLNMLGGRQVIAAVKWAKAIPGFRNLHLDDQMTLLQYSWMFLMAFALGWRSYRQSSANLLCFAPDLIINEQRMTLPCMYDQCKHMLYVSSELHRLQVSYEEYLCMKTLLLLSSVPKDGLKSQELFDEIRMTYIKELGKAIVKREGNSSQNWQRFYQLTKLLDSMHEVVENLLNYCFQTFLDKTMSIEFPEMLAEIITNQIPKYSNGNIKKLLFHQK

HFF [4] = assay: Inhibition of IL1-stimulated IL6 production in HFF cells; assay type: functional, cell-based; conditions: Homo sapiens
HeLa [5] = assay: Activation of MMTV in HeLa cells measured by luciferase activity; assay type: functional, cell-based; conditions: Homo sapiens
HeLa [6] = assay: Activation of MMTV in HeLa cells measured by luciferase activity relative to Dexamethasone; assay type: functional, Homo sapiens
[7] = target: T2, Mineralocorticoid receptor (Homo sapiens, UniProt P08235); assay: Inhibition of tetramethylrhodamine labeled dexamethasone binding to MR by FP assay
T2 sequence (P08235 whole entry): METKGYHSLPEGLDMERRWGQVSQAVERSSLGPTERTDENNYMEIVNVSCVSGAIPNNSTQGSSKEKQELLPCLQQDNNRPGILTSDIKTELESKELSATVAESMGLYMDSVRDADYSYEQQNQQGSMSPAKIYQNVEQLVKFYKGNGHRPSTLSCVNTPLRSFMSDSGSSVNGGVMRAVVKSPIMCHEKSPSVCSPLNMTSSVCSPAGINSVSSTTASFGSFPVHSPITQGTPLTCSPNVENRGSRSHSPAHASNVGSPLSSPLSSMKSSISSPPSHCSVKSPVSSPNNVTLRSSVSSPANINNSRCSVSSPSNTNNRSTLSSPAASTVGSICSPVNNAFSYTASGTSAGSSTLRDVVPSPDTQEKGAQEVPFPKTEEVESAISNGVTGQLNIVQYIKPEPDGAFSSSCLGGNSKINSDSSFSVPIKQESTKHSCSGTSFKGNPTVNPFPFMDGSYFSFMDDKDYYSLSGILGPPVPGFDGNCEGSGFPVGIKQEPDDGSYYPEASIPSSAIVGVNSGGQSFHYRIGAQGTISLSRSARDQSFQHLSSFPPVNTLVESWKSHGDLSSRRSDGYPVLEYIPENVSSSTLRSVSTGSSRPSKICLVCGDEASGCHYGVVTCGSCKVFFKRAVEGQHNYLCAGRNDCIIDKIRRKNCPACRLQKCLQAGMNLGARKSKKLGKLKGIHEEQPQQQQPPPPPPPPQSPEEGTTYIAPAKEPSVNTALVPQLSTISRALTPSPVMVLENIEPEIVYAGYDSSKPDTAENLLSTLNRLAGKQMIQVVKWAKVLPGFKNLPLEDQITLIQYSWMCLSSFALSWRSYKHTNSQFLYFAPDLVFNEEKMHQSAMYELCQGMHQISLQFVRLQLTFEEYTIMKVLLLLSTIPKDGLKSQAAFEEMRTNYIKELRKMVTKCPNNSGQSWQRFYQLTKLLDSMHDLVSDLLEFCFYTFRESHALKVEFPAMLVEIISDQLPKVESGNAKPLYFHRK

Progesterone receptor = target: T3, Progesterone receptor (Homo sapiens, UniProt P06401); assay: Inhibition of tetramethylrhodamine labeled RU486 binding to PR by FP assay
T3 sequence (P06401 whole entry): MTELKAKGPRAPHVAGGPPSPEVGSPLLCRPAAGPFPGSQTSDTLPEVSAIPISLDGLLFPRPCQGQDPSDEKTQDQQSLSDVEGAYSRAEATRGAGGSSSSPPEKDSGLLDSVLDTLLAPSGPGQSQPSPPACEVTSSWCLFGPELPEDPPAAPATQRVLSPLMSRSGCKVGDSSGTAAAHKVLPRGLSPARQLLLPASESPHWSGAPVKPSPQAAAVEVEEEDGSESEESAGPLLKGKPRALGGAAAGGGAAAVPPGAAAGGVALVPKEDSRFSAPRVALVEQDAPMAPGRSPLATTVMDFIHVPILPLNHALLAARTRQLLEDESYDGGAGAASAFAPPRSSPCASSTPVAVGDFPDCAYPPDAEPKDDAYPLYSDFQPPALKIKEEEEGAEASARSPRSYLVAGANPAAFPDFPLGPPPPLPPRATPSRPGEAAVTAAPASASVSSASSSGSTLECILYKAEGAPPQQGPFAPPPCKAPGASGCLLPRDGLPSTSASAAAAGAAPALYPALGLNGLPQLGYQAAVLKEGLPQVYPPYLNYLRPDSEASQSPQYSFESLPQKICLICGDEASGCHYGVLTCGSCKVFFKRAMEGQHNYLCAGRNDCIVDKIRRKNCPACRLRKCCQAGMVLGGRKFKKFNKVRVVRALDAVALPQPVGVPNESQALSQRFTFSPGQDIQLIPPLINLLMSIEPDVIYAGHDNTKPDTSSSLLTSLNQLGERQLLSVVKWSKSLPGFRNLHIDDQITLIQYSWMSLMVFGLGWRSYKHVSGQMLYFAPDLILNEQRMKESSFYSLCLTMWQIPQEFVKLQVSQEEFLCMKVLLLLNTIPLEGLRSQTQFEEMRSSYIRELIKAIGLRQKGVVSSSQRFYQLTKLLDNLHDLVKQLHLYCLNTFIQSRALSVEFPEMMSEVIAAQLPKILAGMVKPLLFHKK

| SMILES | inhibition in vivo at 10 mg/kg (Mus musculus) [%] | Efficacy (HFF [1]) [%] | EC50 (HFF [2]) [nM] | Efficacy (HFF [3]) [%] | IC50 (Glucocorticoid receptor) [nM] | IC50 (HFF [4]) [nM] | EC50 (HeLa [5]) [nM] | Efficacy (HeLa [6]) [%] | IC50 [7] [nM] | IC50 (Progesterone receptor) [nM] |
| --- | --- | --- | --- | --- | --- | --- | --- | --- | --- | --- |
| Cc1ccc(F)cc1C(C)(C)CC(O)(Cn1cc(C)c(=O)c(C)c1)C(F)(F)F (centres undefined) | 48 | 20 | > 2000 | 71 | 125 | 70 |  |  |  |  |
| COc1ccc(F)cc1C(C)(C)CC(O)(Cn1cc(C)c(=O)c(C)c1)C(F)(F)F (centres undefined) |  | 77 | 170 | 87 | 120 | 53 | > 2000 | 3 | 1900 | > 2000 |
| Cc1ccc(O)c(C(C)(C)CC(O)(Cn2ccc(=O)c3ccccc32)C(F)(F)F)c1 (centres undefined) |  |  |  | 93 | 8 | 5.6 |  |  | 160 | 160 |
| COc1ccc(F)cc1C(C)(C)CC(O)(Cn1ccc(=O)c2cnccc21)C(F)(F)F (centres undefined) |  | 39 |  | 72 | 34 | 35 | > 2000 | 1 | 175 | > 2000 |
| Cc1noc(=O)c2ccc(NC(=O)C(O)(CC(C)(C)c3cccc4c3OCC4)C(F)(F)F)cc12 (centres undefined) |  | 56 | 91 | 80 |  | 59 | > 2000 | 14 | 38 |  |
| COc1ccc(F)cc1C(C)(C)CC(O)(CN1CCCc2ccccc21)C(F)(F)F (centres undefined) |  |  |  |  | 950 |  |  |  | 1600 | > 2000 |
| CC(C)(CC(O)(Cn1ccc(=O)c2ccccc21)C(F)(F)F)c1ccccc1 (centres undefined) |  |  |  | 48 | 28 | 78 |  |  | 350 | 106 |
| CC(C)(CC(O)(Cn1ccc(=O)c2ccccc21)C(F)(F)F)c1cccc2c1OCC2 (centres undefined) | 49 | 60 |  | 86 | 4 | 11 |  |  | 98 | 48 |
| COc1ccc(F)cc1C(C)(C)CC(O)(Cn1ccc(=O)c2ncccc21)C(F)(F)F (centres undefined) |  | 41 |  | 78 | 77 | 56 |  |  | 1100 | > 2000 |
| CC(C)(CC(O)(Cn1ccc(=O)c2ccccc21)C(F)(F)F)c1ccc(F)cc1O (centres undefined) |  | 82 | 17 | 88 | 3 |  | 15 | 35 | 880 | 340 |
| COc1ccc(C)c(C(C)(C)CC(O)(Cn2ccc(=O)c3ccccc32)C(F)(F)F)c1 (centres undefined) |  | 65 | 95 | 86 | 11 | 17 | > 2000 | 6 | 91 | 525 |
| COc1ccc(F)cc1C(C)(C)CC(O)(C(=O)Nc1ccc2c(=O)onc(C)c2c1)C(F)(F)F (centres undefined) |  |  |  | 19 | 8 | > 2000 |  |  | 130 | 22 |
| COc1ccc(F)cc1C(C)(C)CC(O)(CN1CCC(=O)CC1)C(F)(F)F (centres undefined) |  |  |  |  | 1400 |  |  |  | > 2000 | > 2000 |
| COc1ccc(F)cc1C(C)(C)CC(O)(Cn1cnc2ccccc21)C(F)(F)F (centres undefined) |  |  |  | 15 | 54 | > 2000 |  |  | 775 | > 2000 |
| COc1ccc(F)cc1C(C)(C)CC(O)(CN1CCOCC1)C(F)(F)F (centres undefined) |  |  |  |  | > 2000 |  |  |  | > 2000 | > 2000 |
| COc1ccc(F)cc1C(C)(C)CC(O)(Cn1ccnc1)C(F)(F)F (centres undefined) |  |  |  |  | > 2000 |  |  |  | > 2000 | > 2000 |
| Cc1ccc(F)cc1C(C)(C)CC(O)(Cn1ccc(=O)c2cnccc21)C(F)(F)F (centres undefined) | 58 | 14 | > 2000 | 59 | 48 | 47 |  |  |  |  |
| Cc1cn(CC(O)(CC(C)(C)c2cccc3c2OCC3)C(F)(F)F)cc(C)c1=O (centres undefined) | 49 | 26 |  | 77 | 34 | 39 |  |  |  |  |
| COc1ccc(F)cc1C(C)(C)CC(O)(Cn1cc(C)nc1C)C(F)(F)F (centres undefined) |  |  |  |  | 650 |  |  |  | 620 | > 2000 |
| COc1ccc(F)cc1C(C)(C)CC(O)(Cn1ccc(=O)cc1)C(F)(F)F (centres undefined) |  |  |  |  | > 2000 |  |  |  | > 2000 | > 2000 |
| Cc1ccc(O)cc1C(C)(C)CC(O)(Cn1ccc(=O)c2ccccc21)C(F)(F)F (centres undefined) |  |  |  |  | 780 |  |  |  | > 2000 | > 2000 |
| COc1ccc(F)cc1C(C)(C)CC(O)(Cn1cnc(=O)c2ccccc21)C(F)(F)F (centres undefined) |  |  |  |  | 690 |  |  |  | > 2000 | > 2000 |
| COc1ccc(F)cc1C(C)(C)CC(O)(CN1C[C@H](C)O[C@@H](C)C1)C(F)(F)F (some centres undefined) |  |  |  | 41 | 110 | > 2000 |  |  | 1500 | > 2000 |
| CC(C)(CC(O)(Cn1ccc(=O)c2ccccc21)C(F)(F)F)c1ccccc1O (centres undefined) |  |  |  | 90 | 6 | 6 |  |  | 450 | 555 |
| C[C@@H]1C[C@H]2[C@@H]3CCC4=CC(=O)C=C[C@]4(C)[C@@]3(F)[C@@H](O)C[C@]2(C)[C@@]1(O)C(=O)CO [DEXAMETHASONE] |  |  | 1.9 |  |  | 0.51 | 17 |  |  | > 2000 |
